Measurements as given in ChEMBL document CHEMBL3885881, “DrugMatrix”.

Organism: Rattus norvegicus
Test: DrugMatrix - Regimen: Daily Repeat
Format: toxicity, organism-based, Sprague-Dawley
Design: regimen Daily Repeat, gender Male, age 6-8 weeks
Details: in vivo, po, route oral GAVAGE, vehicle .5 % CMC; for BASOPHIL / EOSINOPHIL / ERYTHROCYTE COUNT / HEMATOCRIT / HEMOGLOBIN / LEUKOCYTE COUNT / LYMPHOCYTE / MEAN CORPUSCULAR HEMOGLOBIN / MEAN CORPUSCULAR HEMOGLOBIN CONCENTRATION / MEAN CORPUSCULAR VOLUME / MONOCYTE / NEUTROPHIL / PLATELET COUNT: tissue Blood; for ALANINE AMINOTRANSFERASE / ALBUMIN / ALKALINE PHOSPHATASE / ASPARTATE AMINOTRANSFERASE / BLOOD UREA NITROGEN / CHLORIDE / CHOLESTEROL / CREATINE PHOSPHOKINASE / CREATININE / GLUCOSE / PHOSPHORUS / POTASSIUM / SODIUM / TOTAL PROTEIN: tissue Plasma
[1] = 0 mg/kg, 72 h, dose level Control, time 3 day
[2] = 0 mg/kg, 120 h, dose level Control, time 5 day
[3] = 1 mg/kg, 72 h, dose level Low, time 3 day

Q: For CN1C(C(=O)Nc2ccccn2)=C(O)c2ccccc2S1(=O)=O [PIROXICAM], which BASOPHIL [1] is on record?
A: Its BASOPHIL is 0%.

Q: What about the EOSINOPHIL [1] of the same molecule?
A: Its EOSINOPHIL is 0.33%.

Q: And the “ERYTHROCYTE COUNT” value [1]?
A: The value was 6.03 x10E6/uL.

Q: And the HEMATOCRIT [1]?
A: The HEMATOCRIT was 38.8%.

Q: And the HEMOGLOBIN [1]?
A: Its HEMOGLOBIN is 14.26 G/DL.

Q: What about the “LEUKOCYTE COUNT” value [1] of the same molecule?
A: Its value is 10.64 x10E3/uL.

Q: And the LYMPHOCYTE [1]?
A: The LYMPHOCYTE was 83.33%.

Q: And the “MEAN CORPUSCULAR HEMOGLOBIN” value [1]?
A: The value was 23.64 pg.

Q: And the “MEAN CORPUSCULAR HEMOGLOBIN CONCENTRATION” value [1]?
A: Its value is 36.74 G/DL.

Q: And the “MEAN CORPUSCULAR VOLUME” value [1]?
A: The value was 64.32 fL.

Q: And the MONOCYTE [1]?
A: The MONOCYTE was 3.33%.

Q: And the NEUTROPHIL [1]?
A: Its NEUTROPHIL is 13%.

Q: What about the “PLATELET COUNT” value [1] of the same molecule?
A: Its value is 1264.4 x10E3/uL.

Q: What about the “ALANINE AMINOTRANSFERASE” value [1] of the same molecule?
A: Its value is 38.83 u/L.

Q: What about the ALBUMIN [1] of the same molecule?
A: The ALBUMIN was 3.55 G/DL.

Q: And the “ALKALINE PHOSPHATASE” value [1]?
A: The value was 368.33 u/L.

Q: And the “ASPARTATE AMINOTRANSFERASE” value [1]?
A: The value was 66.17 u/L.

Q: And the “BLOOD UREA NITROGEN” value [1]?
A: Its value is 15.67 mg/dL.

Q: What about the CHLORIDE [1] of the same molecule?
A: The CHLORIDE was 104.33 MEQ/L.

Q: What about the CHOLESTEROL [1] of the same molecule?
A: Its CHOLESTEROL is 76.5 mg/dL.

Q: And the “CREATINE PHOSPHOKINASE” value [1]?
A: The value was 166.83 u/L.

Q: What about the CREATININE [1] of the same molecule?
A: Its CREATININE is 0.52 mg/dL.

Q: And the GLUCOSE [1]?
A: Its GLUCOSE is 173.17 mg/dL.

Q: What about the PHOSPHORUS [1] of the same molecule?
A: The PHOSPHORUS was 11.68 mg/dL.

Q: What about the POTASSIUM [1] of the same molecule?
A: The POTASSIUM was 6.43 MEQ/L.

Q: What about the SODIUM [1] of the same molecule?
A: The SODIUM was 149.5 MEQ/L.

Q: And the “TOTAL PROTEIN” value [1]?
A: Its value is 5.93 G/DL.

Q: What about the BASOPHIL [2] of the same molecule?
A: The BASOPHIL was 0%.

Q: What about the EOSINOPHIL [2] of the same molecule?
A: The EOSINOPHIL was 0%.

Q: What about the “ERYTHROCYTE COUNT” value [2] of the same molecule?
A: The value was 5.88 x10E6/uL.

Q: What about the HEMATOCRIT [2] of the same molecule?
A: Its HEMATOCRIT is 37.87%.

Q: What about the HEMOGLOBIN [2] of the same molecule?
A: Its HEMOGLOBIN is 14.48 G/DL.

Q: And the “LEUKOCYTE COUNT” value [2]?
A: The value was 12.43 x10E3/uL.

Q: What about the LYMPHOCYTE [2] of the same molecule?
A: Its LYMPHOCYTE is 84.17%.

Q: And the “MEAN CORPUSCULAR HEMOGLOBIN” value [2]?
A: The value was 24.65 pg.

Q: And the “MEAN CORPUSCULAR HEMOGLOBIN CONCENTRATION” value [2]?
A: Its value is 38.25 G/DL.

Q: What about the “MEAN CORPUSCULAR VOLUME” value [2] of the same molecule?
A: The value was 64.47 fL.

Q: And the MONOCYTE [2]?
A: The MONOCYTE was 4.33%.

Q: And the NEUTROPHIL [2]?
A: The NEUTROPHIL was 11.5%.

Q: And the “PLATELET COUNT” value [2]?
A: The value was 1182.33 x10E3/uL.

Q: And the “ALANINE AMINOTRANSFERASE” value [2]?
A: The value was 38.67 u/L.

Q: And the ALBUMIN [2]?
A: The ALBUMIN was 3.55 G/DL.

Q: And the “ALKALINE PHOSPHATASE” value [2]?
A: The value was 342.5 u/L.

Q: And the “ASPARTATE AMINOTRANSFERASE” value [2]?
A: The value was 63.33 u/L.

Q: What about the “BLOOD UREA NITROGEN” value [2] of the same molecule?
A: The value was 15.5 mg/dL.

Q: And the CHLORIDE [2]?
A: Its CHLORIDE is 104 MEQ/L.

Q: What about the CHOLESTEROL [2] of the same molecule?
A: Its CHOLESTEROL is 75.5 mg/dL.

Q: And the “CREATINE PHOSPHOKINASE” value [2]?
A: Its value is 142.5 u/L.

Q: And the CREATININE [2]?
A: The CREATININE was 0.62 mg/dL.

Q: What about the GLUCOSE [2] of the same molecule?
A: The GLUCOSE was 165.17 mg/dL.

Q: What about the PHOSPHORUS [2] of the same molecule?
A: Its PHOSPHORUS is 10.87 mg/dL.

Q: What about the POTASSIUM [2] of the same molecule?
A: Its POTASSIUM is 6.85 MEQ/L.

Q: And the SODIUM [2]?
A: Its SODIUM is 150.17 MEQ/L.

Q: And the “TOTAL PROTEIN” value [2]?
A: Its value is 5.93 G/DL.

Q: What about the BASOPHIL [3] of the same molecule?
A: Its BASOPHIL is 0%.

Q: And the EOSINOPHIL [3]?
A: Its EOSINOPHIL is 0%.

Q: What about the “ERYTHROCYTE COUNT” value [3] of the same molecule?
A: The value was 6.55 x10E6/uL.

Q: And the HEMATOCRIT [3]?
A: The HEMATOCRIT was 42.8%.

Q: And the HEMOGLOBIN [3]?
A: Its HEMOGLOBIN is 15.95 G/DL.

Q: And the “LEUKOCYTE COUNT” value [3]?
A: Its value is 11.1 x10E3/uL.

Q: And the LYMPHOCYTE [3]?
A: Its LYMPHOCYTE is 85.5%.

Q: And the “MEAN CORPUSCULAR HEMOGLOBIN” value [3]?
A: Its value is 24.3 pg.

Q: And the “MEAN CORPUSCULAR HEMOGLOBIN CONCENTRATION” value [3]?
A: Its value is 37.3 G/DL.

Q: What about the “MEAN CORPUSCULAR VOLUME” value [3] of the same molecule?
A: Its value is 65.25 fL.

Q: What about the MONOCYTE [3] of the same molecule?
A: The MONOCYTE was 3.5%.

Q: What about the NEUTROPHIL [3] of the same molecule?
A: Its NEUTROPHIL is 11%.

Q: What about the “PLATELET COUNT” value [3] of the same molecule?
A: Its value is 1530 x10E3/uL.

Q: And the “ALANINE AMINOTRANSFERASE” value [3]?
A: The value was 31.5 u/L.

Q: What about the ALBUMIN [3] of the same molecule?
A: The ALBUMIN was 3.75 G/DL.

Q: What about the “ALKALINE PHOSPHATASE” value [3] of the same molecule?
A: Its value is 379 u/L.

Q: And the “ASPARTATE AMINOTRANSFERASE” value [3]?
A: The value was 59 u/L.

Q: What about the “BLOOD UREA NITROGEN” value [3] of the same molecule?
A: The value was 16.5 mg/dL.

Q: And the CHLORIDE [3]?
A: Its CHLORIDE is 102.5 MEQ/L.

Q: What about the CHOLESTEROL [3] of the same molecule?
A: Its CHOLESTEROL is 77.5 mg/dL.

Q: What about the “CREATINE PHOSPHOKINASE” value [3] of the same molecule?
A: Its value is 142.5 u/L.

Q: And the CREATININE [3]?
A: The CREATININE was 0.4 mg/dL.

Q: What about the GLUCOSE [3] of the same molecule?
A: The GLUCOSE was 174 mg/dL.

Q: What about the PHOSPHORUS [3] of the same molecule?
A: The PHOSPHORUS was 13.7 mg/dL.

Q: What about the POTASSIUM [3] of the same molecule?
A: The POTASSIUM was 6.85 MEQ/L.

Q: What about the SODIUM [3] of the same molecule?
A: The SODIUM was 152 MEQ/L.

Q: What about the “TOTAL PROTEIN” value [3] of the same molecule?
A: Its value is 6.2 G/DL.
